Assay results from patent US20240043474A1, “ANTI-INFLAMMATORY PEPTIDE FOR PREVENTING OR TREATING ATOPIC DERMATITIS” (AJOU UNIVERSITY INDUSTRY-ACADEMIC COOPERATION FOUNDATION, priority 2020, published 2024).
Entries after “also recorded” stand apart in the source; their conditions may differ. Square brackets hold non-standard residues; d marks the D form. Primed or numbered codes have the meaning given here. Ends that are not written are not given here. Peptide text beside a SMILES is read from it. * marks the point of attachment. PEG2′ = N-terminal cap of 2 polyethylene glycol units (PEG2); PEG4′ = N-terminal cap of 4 polyethylene glycol units (PEG4); 5FAM = O=C1OC2(c3ccc(O)cc3Oc3cc(O)ccc32)c2ccc(C(=O)*)cc21; Butanoyl(4-maleimido) = O=C1C=CC(=O)N1CCCC(=O)*; Stearoyl = CCCCCCCCCCCCCCCCCC(=O)*; Palmitoyl = CCCCCCCCCCCCCCCC(=O)*; Myristoyl = CCCCCCCCCCCCCC(=O)*; Hexanoyl = CCCCCC(=O)*

Legend:
[1] = system: peritoneal macrophages; assay: Fluorescence-expressing peritoneal macrophages after intraperitoneal fluorescently labeled peptide, FACS; type: in vivo, mouse
[2] = Skin tissue penetrability, confocal microscopy of skin after topical fluorescent peptide; type: in vivo, mouse; details: 1 μg applied to skin of ICR mice, with or without needle scratch, skin collected 2 hours later; FIG. 5
Excerpt: To determine the skin tissue penetration of the A900 peptide, peptide A900 peptide (A900-FAM) with fluorescent substance FAM (Carboxyfluorescein) attached to the N-terminus of A900 peptide was applied to the skin of ICR 4-week-old mice.

[3] = system: lymph node cells; assay: Intracellular expression and frequency of peptide in cultured lymph node cells, confocal microscopy and FACS; type: cell-based, mouse; details: 1 μg/mL, FIG. 7
[4] = system: peritoneal macrophages; assay: Intracellular expression and frequency of peptide in cultured peritoneal macrophages, confocal microscopy and FACS; type: cell-based, mouse; details: 1 μg/mL, FIG. 8
Description: Peritoneal macrophages were isolated from the same mouse used in FIG. 7 to culture the cell suspension. Anti-CD3 (1 μg/ml) antibodies were plated on a petri dish at room temperature for 3 hours and cells were inoculated (5×10^5 cells/well). After 1 hour, anti-CD28 antibodies (1 μg/ml), IL-23 (20 ng/ml), IL-6 (20 ng/ml), and TGF-β (5 ng/ml) were added.

[5] = system: IL-4, IL-31, IL-17; assay: Cytokine expression in spleen by real-time PCR after treating atopic skin lesions with external preparation; type: in vivo, mouse; details: external preparation on skin lesions, FIG. 9
[6] = system: IL-4R alpha, CCR3 and CTLA-4 positive cells; assay: FACS of splenocytes from atopic dermatitis mice after external preparation for five days; type: in vivo, mouse; details: FIG. 2
Description: In order to identify whether the peptide that has the effect of alleviating atopic dermatitis inflammation has an immunoregulatory function, splenocytes and peripheral blood leukocytes (PBLs) were separately isolated after administrating the external preparation into the mouse skin for five days, surface staining was performed with antibodies for FACS, and then the frequency of cells expressing interleukin 4 receptor (IL-4R) alpha, C—C chemokine receptor type 3 (CCR3), and cytotoxic T-lymphocyte-associated protein 4 (CTLA-4) was analyzed via flow cytometry. Dupixent was administered in a form of a peritoneal injection and tested as a control group.

[7] = system: cells secreting atopy associated cytokines; assay: In vivo FACS of intracellular cytokines in PBLs after external preparation for 5 days in atopic mice; set-up: species or system mouse; details: external preparation 1 μg/ml for 5 days, compared to ADC mice given PBS, FIG. 13
Description: (§1) After removing hair from 6-week-old Balb/c male mice, application was performed with 1% DNCB 1 time/day for 2 days and 0.5% DNCB 1 time/day for 3 days for a total of 5 days, to induce atopic symptoms (N=5-8 mice for each group). After administering the external preparation to mouse skin for 5 days in mice having atopic symptoms, peripheral blood leukocytes (PBLs) were isolated and the frequency of each cytokine expressing cell was analyzed and compared after intracellular staining with antibodies for FACS. The control group was given with an anti-inflammatory moisturizing cream external preparation (5 times) and administered with an anti-mouse IL-4 receptor antibody (100 ug/mouse) intraperitoneal injection (1 time). A900, A900M, A900MAL, and A900PEG4 were used for peptides, and the concentration was set to 1 μg/ml. Cytokines were subjected to intracellular staining to measure the frequency of stained cell population.

[8] = system: CD11b+Ly6G+, CD83+ and Foxp3+ positive cells; assay: FACS of peripheral blood leukocytes (PBLs) from atopic dermatitis mice after peptide administration; type: in vivo, mouse; details: FIG. 3
[9] = system: IL-4, IL-13, IL-21; assay: Real-time PCR of cytokines in splenocytes and lymph node cells from atopic mice cultured with peptides; type: cell-based, mouse; details: 24 hours, compared to untreated control (ADC), FIGS. 11 and 12
[10] = system: IL-4; assay: IL-4 expression in splenocytes of treated atopic dermatitis mice by real-time PCR; type: in vivo, mouse; details: FIG. 4
[11] = system: CD4 T cells secreting atopy associated cytokines; assay: Ex vivo FACS of PBMCs from atopic mice cultured with peptides; type: cell-based, mouse; details: 3 μg/ml, 24 hours, compared to untreated control group (ADC), FIG. 10
Description: After removing hair from 6-week-old Balb/c male mice, application was performed with 1% DNCB 1 time/day for 2 days and 0.5% DNCB 1 time/day for 3 days for a total of 5 days to induce atopic symptoms. PBMCs were isolated from atopic mice, seeded in 24 well plates, treated with peptides, cultured for 24 hours, and then analyzed by FACS. PBMCs isolated from normal mice and atopy-induced mice were used as control groups, and peptides were treated to PBMC cultures isolated from atopic mice. Dupixent was used for the peptide control group (Dupixent 5 μg/ml). A900, A900P, A900H, A900S, A900M, A900MAL, A900PEG2, and A900PEG4 were used as the peptides, and the concentration was set to 3 μg/ml. Surface was stained with anti-CD4 antibodies, cytokines were subjected to intracellular staining, and the frequency of double stained population was measured.

[12] = system: IL-13, IL-4, TNF alpha, IL-17; assay: Cytokines in mice having atopic dermatitis after peptide A900 treatment (summary statement); type: in vivo, mouse
[13] = system: atopic dermatitis induced with dinitrochlorobenzene (DNCB); assay: DNCB-induced atopic dermatitis mouse model, peptide applied as external preparation; type: in vivo; details: FIG. 1
Description: Experimental mice were bred in a 12-hour light/dark cycle, free of pathogens at a constant temperature of 23° C. and 55% humidity. After an adaptation period of several days, DNCB-induced atopic dermatitis was induced in mice by the following method.
First, the hair in the dorsal skin area was carefully shaved using a hair removal cream, and then 100 μL of 1% dinitrochlorobenzene (DNCB) dissolved in acetone was locally treated to exposed skin once a day for 3 days to sensitize the skin and induce atopic dermatitis.
A positive control group obtained by treating mice having atopic dermatitis with anti-inflammatory moisturizing cream (Control Cream) and Dupixent injection which is a therapeutic agent for atopic dermatitis was compared with a peptide (A900 peptide) treated group.

[14] = system: CD4 cells secreting IL-13 and IL-31; assay: In vivo FACS of cytokine-expressing CD4 cells in PBLs after external preparation in atopic mice; set-up: species or system mouse; details: external preparation 1 μg/ml for 5 days, FIG. 14
Description: as §1
Peripheral blood leukocytes (PBLs) isolated from the same mice as in FIG. 13 were isolated and subjected to CD4 surface staining and intracellular staining with antibodies for FACS to analyze and compare the frequency of each cytokine-expressing CD4 cell.

[15] = external preparation for five days
[16] = PBLs of mice having atopic dermatitis

Molecule | expression of IL-4 [5] | expression of IL-17 [5] | expression of IL-31 [5] | IL-4 expression [9] | IL-13 expression [9] | IL-21 expression [9] | frequency of CD4 T cells secreting atopy associated cytokines [11] | also measured
CC[C@H](C)[C@H](NC(=O)[C@H](CCC(=O)O)NC(=O)CNC(=O)[C@H](CS)NC(=O)[C@H](CCCNC(=N)N)NC(=O)[C@H](CC(C)C)NC(=O)[C@@H](NC(=O)[C@@H](NC(=O)[C@@H](NC(=O)[C@H](CS)NC(=O)CNC(=O)c1ccc2c(c1)C(=O)OC21c2ccc(O)cc2Oc2cc(O)ccc21)C(C)C)[C@@H](C)O)C(C)C)C(=O)N[C@H](C(=O)O)C(C)C [A900-FAM] (5FAM-GCVTVLRCGEIV-OH) | – | – | – | – | – | – | – | fluorescence-expressing cells ([1]; 3 μg into abdominal cavity, after 3 hours, FIG. 6): barely detected; peritoneal macrophages expressing fluorescence ([1]; 3 μg into abdominal cavity, at 30 minutes, FIG. 6): 50%; peritoneal macrophages expressing fluorescence ([1]; 3 μg into abdominal cavity, at 1 hour, FIG. 6): 23%; time the peptide is maintained in the cell ([1]; 3 μg intraperitoneally, cells in the abdominal cavity): more than 1 hour; skin tissue penetration (fluorescence in skin tissue) [2]: fluorescence was detected in both the epidermis and dermis; cell frequency expressing peptide ([3]; 1-hour treated group): 20%; cell frequency expressing peptide ([3]; 24-hour treated group): 40%; cell frequency expressing peptide ([4]; 1-hour culture group): 10%; cell frequency expressing peptide ([4]; 24-hour culture group): 15%
GCESEILCGEIV [A907] | inhibited | inhibited | inhibited | – | – | – | – | –
GCETELRCGEIV [A903] | inhibited | inhibited | inhibited | – | – | – | – | –
GCETVLRCGEIV [A901] | inhibited | inhibited | inhibited | – | – | – | – | –
GCLRCGEIV [A914] | inhibited | inhibited | inhibited | – | – | – | – | –
GCVTELRCGEIV [A902] | inhibited | inhibited | inhibited | – | – | – | – | –
GCVTVCGEIV [A911] | inhibited | inhibited | inhibited | – | – | – | – | –
GCVTVLRCGEIV [A900] | inhibited | inhibited | inhibited | inhibited | inhibited | inhibited | inhibited | degree of inhibition of IL-4R alpha, CCR3 and CTLA-4 positive cells compared with control administered group ([6]; control Dupixent peritoneal injection): more effective than that of the control administered group; frequency of CCR3 positive cells [6, 15]: tended to be inhibitive; also recorded: decreased; frequency of CTLA-4 positive cells [6, 15]: tended to be inhibitive; also recorded: decreased; frequency of IL-4R alpha positive cells [6, 15]: tended to be inhibitive; also recorded: decreased; frequency of cells secreting atopy associated cytokines [7]: inhibited; frequency of CD11b+Ly6G+ positive cells [8, 16]: inhibited; frequency of CD83+ positive cells [8, 16]: inhibited; frequency of Foxp3+ positive cells [8, 16]: increased; degree of inhibition of CD11b+Ly6G+ and CD83+ positive cells compared with control administered group ([8]; PBLs): more effective than in the control administered group; IL-4 expression [10]: inhibited; cytokines such as IL-13, IL-4, TNF alpha, and IL-17 [12]: reduced; atopic dermatitis symptoms ([13]; external preparation applied to mice with DNCB-induced atopic dermatitis): alleviated; speed of appearance of the effect compared with control group ([13]; versus Control Cream / Dupixent injection positive control): faster than the control group
Hexanoyl-GCVTVLRCGEIV (cysteine pairing not given here) [A900H] | – | – | – | inhibited | inhibited | inhibited | – | –
Maleimidobutyrol-GCVTVLRCGEIV ({Butanoyl(4-maleimido)}-GCVTVLRCGEIV; cysteine pairing not given here) [A900MAL] | – | – | – | inhibited | inhibited | inhibited | inhibited | frequency of cells secreting atopy associated cytokines [7]: inhibited; frequency of CD4 cells secreting IL-13 [14]: inhibited; frequency of CD4 cells secreting IL-31 [14]: inhibited
Myristoyl-GCVTVLRCGEIV (cysteine pairing not given here) [A900M] | – | – | – | inhibited | inhibited | inhibited | inhibited | frequency of cells secreting atopy associated cytokines [7]: inhibited
PEG2-GCVTVLRCGEIV ([PEG2′]GCVTVLRCGEIV; cysteine pairing not given here) [A900PEG2] | – | – | – | inhibited | inhibited | inhibited | – | –
PEG4-GCVTVLRCGEIV ([PEG4′]GCVTVLRCGEIV; cysteine pairing not given here) [A900PEG4] | – | – | – | inhibited | inhibited | inhibited | inhibited | frequency of cells secreting atopy associated cytokines [7]: inhibited
Palmitoyl-GCVTVLRCGEIV (cysteine pairing not given here) [A900P] | – | – | – | inhibited | inhibited | inhibited | inhibited | –
Stearoyl-GCVTVLRCGEIV (cysteine pairing not given here) [A900S] | – | – | – | – | – | – | inhibited | –
